Test results reported in ChEMBL document CHEMBL1153480, “Study on the potential anti-cancer activity of phosphonium and ammonium-based ionic liquids” (2009).

How the values were obtained:
Format in all cases: functional
SF-539 = assay: cells; details: Homo sapiens
Description: Growth inhibition of human SF539 cells assessed as drug level required for 50% reduction in net protein increase by SRB assay relative to control

SNB-75 [1] = assay: cells; details: Homo sapiens
Description: Growth inhibition of human SNB75 cells assessed as drug level required for 50% reduction in net protein increase by SRB assay relative to control

U-251 = assay: cells; details: Homo sapiens
Description: Growth inhibition of human U251 cells assessed as drug level required for 50% reduction in net protein increase by SRB assay relative to control

LOX IMVI [2] = assay: cells; details: Homo sapiens
Description: Growth inhibition of human LOXIMVI cells assessed as drug level required for 50% reduction in net protein increase by SRB assay relative to control

M14 = assay: cells; details: Homo sapiens
Description: Growth inhibition of human M14 cells assessed as drug level required for 50% reduction in net protein increase by SRB assay relative to control

SK-MEL-28 = assay: cells; details: Homo sapiens
Description: Growth inhibition of human SK-MEL-28 cells assessed as drug level required for 50% reduction in net protein increase by SRB assay relative to control

SK-MEL-5 [3] = assay: cells; details: Homo sapiens
Description: Growth inhibition of human SK-MEL-5 cells assessed as drug level required for 50% reduction in net protein increase by SRB assay relative to control

OVCAR-3 = assay: cells; details: Homo sapiens
Description: Growth inhibition of human OVCAR-3 cells assessed as drug level required for 50% reduction in net protein increase by SRB assay relative to control

OVCAR-4 [4] = assay: cells; details: Homo sapiens
Description: Growth inhibition of human OVCAR4 cells assessed as drug level required for 50% reduction in net protein increase by SRB assay relative to control

SN12C = assay: cells; details: Homo sapiens
Description: Growth inhibition of human SN12C cells assessed as drug level required for 50% reduction in net protein increase by SRB assay relative to control

TK-10 = assay: cells; details: Homo sapiens
Description: Growth inhibition of human TK10 cells assessed as drug level required for 50% reduction in net protein increase by SRB assay relative to control

UO-31 [5] = assay: cells; details: Homo sapiens
Description: Growth inhibition of human UO31 cells assessed as drug level required for 50% reduction in net protein increase by SRB assay relative to control

DU-145 [6] = assay: cells; details: Homo sapiens
Description: Growth inhibition of human DU145 cells assessed as drug level required for 50% reduction in net protein increase by SRB assay relative to control

NCI/ADR-RES = assay: cells; details: Homo sapiens
Description: Growth inhibition of human NCI/ADR-RES cells assessed as drug level required for 50% reduction in net protein increase by SRB assay relative to control

A498 = assay: cells; details: Homo sapiens
Description: Growth inhibition of human A498 cells assessed as cell growth at 10 uM by SRB assay

T47D [7] = assay: cells; details: Homo sapiens
Description: Growth inhibition of human T47D cells assessed as drug level required for 50% reduction in net protein increase by SRB assay relative to control

K562 [8] = assay: Cytotoxicity against human K562 cells by SRB assay; details: read-out: LC50 (the source's name)
A549 [9] = assay: Cytotoxicity against human A549 cells by SRB assay; details: read-out: LC50 (the source's name)
NCI-H23 = assay: Cytotoxicity against human NCI-H23 cells by SRB assay; details: read-out: LC50 (the source's name)
NCI-H460 [10] = assay: Cytotoxicity against human NCI-H460 cells by SRB assay; details: read-out: LC50 (the source's name)
SF-268 [11] = assay: Cytotoxicity against human SF268 cells by SRB assay; details: read-out: LC50 (the source's name)
SNB-75 [12] = assay: Cytotoxicity against human SNB75 cells by SRB assay; details: read-out: LC50 (the source's name)
Malme-3M = assay: Cytotoxicity against human MALME-3M cells by SRB assay; details: read-out: LC50 (the source's name)
OVCAR-4 [13] = assay: Cytotoxicity against human OVCAR4 cells by SRB assay; details: read-out: LC50 (the source's name)
SK-OV-3 [14] = assay: Cytotoxicity against human SKOV3 cells by SRB assay; details: read-out: LC50 (the source's name)
786-0 = assay: cells; details: Homo sapiens, read-out: LC50 (the source's name)
Description: Cytotoxicity against human 786-0 cells by SRB assay

cells [15] = details: Homo sapiens, Hs-578T
Description: Growth inhibition of human Hs 578T cells assessed as drug level required for 50% reduction in net protein increase by SRB assay relative to control

ACHN = assay: cells; details: Homo sapiens
Description: Growth inhibition of human ACHN cells assessed as cell growth at 10 uM by SRB assay

UO-31 [16] = assay: cells; details: Homo sapiens; remark: listed apart in the source
Description: Growth inhibition of human UO31 cells assessed as cell growth at 10 uM by SRB assay

PC-3 = assay: cells; details: Homo sapiens
Description: Growth inhibition of human PC3 cells assessed as cell growth at 10 uM by SRB assay

MCF7 = assay: cells; details: Homo sapiens
Description: Growth inhibition of human MCF7 cells assessed as cell growth at 10 uM by SRB assay

HCT-15 = assay: cells; details: Homo sapiens
Description: Growth inhibition of human HCT15 cells assessed as drug level required for 50% reduction in net protein increase by SRB assay relative to control

HCC 2998 [17] = assay: cells; details: Homo sapiens
Description: Growth inhibition of human HCC2998 cells assessed as drug level required for 50% reduction in net protein increase by SRB assay relative to control

COLO 205 = assay: cells; details: Homo sapiens
Description: Growth inhibition of human COLO205 cells assessed as drug level required for 50% reduction in net protein increase by SRB assay relative to control

UO-31 [18] = assay: Cytotoxicity against human UO31 cells by SRB assay; details: read-out: LC50 (the source's name)
DU-145 [19] = assay: Cytotoxicity against human DU145 cells by SRB assay; details: read-out: LC50 (the source's name)
cells [20] = details: Homo sapiens, Hs-578T; read-out: LC50 (the source's name)
Description: Cytotoxicity against human Hs 578T cells by SRB assay

BT-549 = assay: Cytotoxicity against human BT549 cells by SRB assay; details: read-out: LC50 (the source's name)
MDA-MB-468 [21] = assay: Cytotoxicity against human MDA-MB-468 cells by SRB assay; details: read-out: LC50 (the source's name)
CCRF-CEM [22] = assay: cells; details: Homo sapiens
Description: Growth inhibition of human CCRF-CEM cells assessed as cell growth at 10 uM by SRB assay

HL-60(TB) [23] = assay: cells; details: Homo sapiens
Description: Growth inhibition of human HL-60(TB) cells assessed as cell growth at 10 uM by SRB assay

RPMI-8226 [24] = assay: cells; details: Homo sapiens
Description: Growth inhibition of human RPMI8226 cells assessed as cell growth at 10 uM by SRB assay

SR = assay: cells; details: Homo sapiens
Description: Growth inhibition of human SR cells assessed as cell growth at 10 uM by SRB assay

HOP-62 [25] = assay: cells; details: Homo sapiens
Description: Growth inhibition of human HOP62 cells assessed as cell growth at 10 uM by SRB assay

HOP-92 = assay: cells; details: Homo sapiens
Description: Growth inhibition of human HOP92 cells assessed as cell growth at 10 uM by SRB assay

NCI-H322M = assay: cells; details: Homo sapiens
Description: Growth inhibition of human NCI-H322M cells assessed as cell growth at 10 uM by SRB assay

NCI-H460 [26] = assay: cells; details: Homo sapiens
Description: Growth inhibition of human NCI-H460 cells assessed as cell growth at 10 uM by SRB assay

HCC 2998 [27] = assay: cells; details: Homo sapiens; remark: listed apart in the source
Description: Growth inhibition of human HCC2998 cells assessed as cell growth at 10 uM by SRB assay

HCT-116 = assay: cells; details: Homo sapiens
Description: Growth inhibition of human HCT116 cells assessed as cell growth at 10 uM by SRB assay

HT-29 = assay: cells; details: Homo sapiens
Description: Growth inhibition of human HT-29 cells assessed as cell growth at 10 uM by SRB assay

KM12 = assay: cells; details: Homo sapiens
Description: Growth inhibition of human KM12 cells assessed as cell growth at 10 uM by SRB assay

SW-620 = assay: cells; details: Homo sapiens
Description: Growth inhibition of human SW620 cells assessed as cell growth at 10 uM by SRB assay

HOP-62 [28] = assay: cells; details: Homo sapiens; remark: listed apart in the source
Description: Growth inhibition of human HOP62 cells assessed as drug level required for 50% reduction in net protein increase by SRB assay relative to control

EKVX = assay: cells; details: Homo sapiens
Description: Growth inhibition of human EKVX cells assessed as drug level required for 50% reduction in net protein increase by SRB assay relative to control

A549 [29] = assay: cells; details: Homo sapiens
Description: Growth inhibition of human A549 cells assessed as drug level required for 50% reduction in net protein increase by SRB assay relative to control

RPMI-8226 [30] = assay: cells; details: Homo sapiens; remark: listed apart in the source
Description: Growth inhibition of human RPMI8226 cells assessed as drug level required for 50% reduction in net protein increase by SRB assay relative to control

K562 [31] = assay: cells; details: Homo sapiens
Description: Growth inhibition of human K562 cells assessed as drug level required for 50% reduction in net protein increase by SRB assay relative to control

HL-60(TB) [32] = assay: cells; details: Homo sapiens; remark: listed apart in the source
Description: Growth inhibition of human HL-60(TB) cells assessed as drug level required for 50% reduction in net protein increase by SRB assay relative to control

CCRF-CEM [33] = assay: cells; details: Homo sapiens; remark: listed apart in the source
Description: Growth inhibition of human CCRF-CEM cells assessed as drug level required for 50% reduction in net protein increase by SRB assay relative to control

SF-268 [34] = assay: cells; details: Homo sapiens
Description: Growth inhibition of human SF268 cells assessed as drug level required for 50% reduction in net protein increase by SRB assay relative to control

T47D [35] = assay: cells; details: Homo sapiens; remark: listed apart in the source
Description: Growth inhibition of human T47D cells assessed as cell growth at 10 uM by SRB assay

MDA-MB-468 [36] = assay: cells; details: Homo sapiens
Description: Growth inhibition of human MDA-MB-468 cells assessed as cell growth at 10 uM by SRB assay

SNB-19 = assay: cells; details: Homo sapiens
Description: Growth inhibition of human SNB19 cells assessed as cell growth at 10 uM by SRB assay

LOX IMVI [37] = assay: cells; details: Homo sapiens; remark: listed apart in the source
Description: Growth inhibition of human LOXIMVI cells assessed as cell growth at 10 uM by SRB assay

SK-MEL-2 = assay: cells; details: Homo sapiens
Description: Growth inhibition of human SK-MEL-2 cells assessed as cell growth at 10 uM by SRB assay

SK-MEL-5 [38] = assay: cells; details: Homo sapiens; remark: listed apart in the source
Description: Growth inhibition of human SK-MEL-5 cells assessed as cell growth at 10 uM by SRB assay

UACC-257 = assay: cells; details: Homo sapiens
Description: Growth inhibition of human UACC257 cells assessed as cell growth at 10 uM by SRB assay

UACC-62 = assay: cells; details: Homo sapiens
Description: Growth inhibition of human UACC62 cells assessed as cell growth at 10 uM by SRB assay

OVCAR-4 [39] = assay: cells; details: Homo sapiens; remark: listed apart in the source
Description: Growth inhibition of human OVCAR4 cells assessed as cell growth at 10 uM by SRB assay

OVCAR-5 = assay: cells; details: Homo sapiens
Description: Growth inhibition of human OVCAR5 cells assessed as cell growth at 10 uM by SRB assay

SK-OV-3 [40] = assay: cells; details: Homo sapiens
Description: Growth inhibition of human SKOV3 cells assessed as cell growth at 10 uM by SRB assay

Question: With `CCCCCCCCCCCCCCCCCCPCCCCCCCCCCCCCC.O=S(=O)(NS(=O)(=O)C(F)(F)F)C(F)(F)F` (stereo unspecified) as the compound, how does the GI50 (SF-539) read?
Answer: The GI50 was 174 nM.

Question: And the GI50 (SNB-75 [1])?
Answer: The GI50 was 76 nM.

Question: What about the GI50 (U-251) of the same compound?
Answer: Its GI50 is 41 nM.

Question: What about the GI50 (LOX IMVI [2]) of the same compound?
Answer: The GI50 was 58 nM.

Question: What about the GI50 (M14) of the same compound?
Answer: The GI50 was 52 nM.

Question: What about the GI50 (SK-MEL-28) of the same compound?
Answer: The GI50 was 207 nM.

Question: And the GI50 (SK-MEL-5 [3])?
Answer: Its GI50 is 79 nM.

Question: And the GI50 (OVCAR-3)?
Answer: The GI50 was 51 nM.

Question: What about the GI50 (OVCAR-4 [4]) of the same compound?
Answer: The GI50 was 73 nM.

Question: What about the GI50 (SN12C) of the same compound?
Answer: The GI50 was 42 nM.

Question: What about the GI50 (TK-10) of the same compound?
Answer: The GI50 was 341 nM.

Question: What about the GI50 (UO-31 [5]) of the same compound?
Answer: The GI50 was 350 nM.

Question: And the GI50 (DU-145 [6])?
Answer: The GI50 was 156 nM.

Question: And the GI50 (NCI/ADR-RES)?
Answer: Its GI50 is 730 nM.

Question: What about the growth at 10 µM (A498) of the same compound?
Answer: The growth at 10 µM was -48.3%.

Question: What about the GI50 (T47D [7]) of the same compound?
Answer: Its GI50 is 73 nM.

Question: And the CC50 (K562 [8])?
Answer: Its CC50 is over 100000 nM.

Question: What about the CC50 (A549 [9]) of the same compound?
Answer: The CC50 was over 100000 nM.

Question: What about the CC50 (NCI-H23) of the same compound?
Answer: The CC50 was over 100000 nM.

Question: What about the CC50 (NCI-H460 [10]) of the same compound?
Answer: The CC50 was over 100000 nM.

Question: What about the CC50 (SF-268 [11]) of the same compound?
Answer: The CC50 was over 100000 nM.

Question: What about the CC50 (SNB-75 [12]) of the same compound?
Answer: The CC50 was over 100000 nM.

Question: And the CC50 (Malme-3M)?
Answer: The CC50 was 5380 nM.

Question: And the CC50 (OVCAR-4 [13])?
Answer: The CC50 was over 100000 nM.

Question: And the CC50 (SK-OV-3 [14])?
Answer: Its CC50 is over 100000 nM.

Question: What about the CC50 (786-0) of the same compound?
Answer: Its CC50 is over 100000 nM.

Question: And the GI50 (cells [15])?
Answer: The GI50 was 53 nM.

Question: What about the growth at 10 µM (ACHN) of the same compound?
Answer: Its growth at 10 µM is -26%.

Question: And the growth at 10 µM (UO-31 [16])?
Answer: The growth at 10 µM was -36.6%.

Question: And the growth at 10 µM (PC-3)?
Answer: Its growth at 10 µM is -78.1%.

Question: What about the growth at 10 µM (MCF7) of the same compound?
Answer: The growth at 10 µM was -51.8%.

Question: And the GI50 (HCT-15)?
Answer: The GI50 was 291 nM.

Question: And the GI50 (HCC 2998 [17])?
Answer: The GI50 was 240 nM.

Question: What about the GI50 (COLO 205) of the same compound?
Answer: The GI50 was 182 nM.

Question: And the CC50 (UO-31 [18])?
Answer: Its CC50 is over 100000 nM.

Question: And the CC50 (DU-145 [19])?
Answer: The CC50 was over 100000 nM.

Question: And the CC50 (cells [20])?
Answer: The CC50 was over 100000 nM.

Question: What about the CC50 (BT-549) of the same compound?
Answer: The CC50 was over 100000 nM.

Question: And the CC50 (MDA-MB-468 [21])?
Answer: The CC50 was 2560 nM.

Question: And the growth at 10 µM (CCRF-CEM [22])?
Answer: Its growth at 10 µM is 26.4%.

Question: What about the growth at 10 µM (HL-60(TB) [23]) of the same compound?
Answer: Its growth at 10 µM is 43.1%.

Question: And the growth at 10 µM (RPMI-8226 [24])?
Answer: Its growth at 10 µM is 59.4%.

Question: And the growth at 10 µM (SR)?
Answer: The growth at 10 µM was 62.4%.

Question: What about the growth at 10 µM (HOP-62 [25]) of the same compound?
Answer: Its growth at 10 µM is -2.18%.

Question: What about the growth at 10 µM (HOP-92) of the same compound?
Answer: Its growth at 10 µM is -67.1%.

Question: And the growth at 10 µM (NCI-H322M)?
Answer: The growth at 10 µM was -11.9%.

Question: What about the growth at 10 µM (NCI-H460 [26]) of the same compound?
Answer: Its growth at 10 µM is -59.4%.

Question: And the growth at 10 µM (HCC 2998 [27])?
Answer: The growth at 10 µM was -24.4%.

Question: What about the growth at 10 µM (HCT-116) of the same compound?
Answer: The growth at 10 µM was -70.8%.

Question: What about the growth at 10 µM (HT-29) of the same compound?
Answer: Its growth at 10 µM is -58.2%.

Question: And the growth at 10 µM (KM12)?
Answer: Its growth at 10 µM is -100%.

Question: And the growth at 10 µM (SW-620)?
Answer: The growth at 10 µM was -86.3%.

Question: And the GI50 (HOP-62 [28])?
Answer: Its GI50 is 435 nM.

Question: What about the GI50 (EKVX) of the same compound?
Answer: Its GI50 is 123 nM.

Question: What about the GI50 (A549 [29]) of the same compound?
Answer: Its GI50 is 292 nM.

Question: And the GI50 (RPMI-8226 [30])?
Answer: Its GI50 is 16 nM.

Question: And the GI50 (K562 [31])?
Answer: Its GI50 is 41 nM.

Question: What about the GI50 (HL-60(TB) [32]) of the same compound?
Answer: The GI50 was 46 nM.

Question: What about the GI50 (CCRF-CEM [33]) of the same compound?
Answer: The GI50 was 26 nM.

Question: What about the GI50 (SF-268 [34]) of the same compound?
Answer: The GI50 was 72 nM.

Question: And the growth at 10 µM (T47D [35])?
Answer: The growth at 10 µM was -14.8%.

Question: What about the growth at 10 µM (MDA-MB-468 [36]) of the same compound?
Answer: The growth at 10 µM was -88.3%.

Question: What about the growth at 10 µM (SNB-19) of the same compound?
Answer: Its growth at 10 µM is 8.99%.

Question: And the growth at 10 µM (LOX IMVI [37])?
Answer: Its growth at 10 µM is -68.5%.

Question: What about the growth at 10 µM (SK-MEL-2) of the same compound?
Answer: Its growth at 10 µM is -3.57%.

Question: And the growth at 10 µM (SK-MEL-5 [38])?
Answer: Its growth at 10 µM is -100%.

Question: What about the growth at 10 µM (UACC-257) of the same compound?
Answer: The growth at 10 µM was -34.6%.

Question: And the growth at 10 µM (UACC-62)?
Answer: Its growth at 10 µM is -28.1%.

Question: What about the growth at 10 µM (OVCAR-4 [39]) of the same compound?
Answer: The growth at 10 µM was -91.8%.

Question: What about the growth at 10 µM (OVCAR-5) of the same compound?
Answer: Its growth at 10 µM is -7.29%.

Question: What about the growth at 10 µM (SK-OV-3 [40]) of the same compound?
Answer: The growth at 10 µM was -3.34%.
